The values that follow come from patent publication US8785460B2, “Tricyclic compounds and use thereof” (Takeda Pharmaceutical Company Limited, priority 2008, dated 2014).

One data set has as its target T1, human CRF1 receptor (Homo sapiens, UniProt P34998).
T1 construct: expressed in transfected cells; host or cells: CHO cells (membrane fraction)
T1 sequence (P34998 24-415): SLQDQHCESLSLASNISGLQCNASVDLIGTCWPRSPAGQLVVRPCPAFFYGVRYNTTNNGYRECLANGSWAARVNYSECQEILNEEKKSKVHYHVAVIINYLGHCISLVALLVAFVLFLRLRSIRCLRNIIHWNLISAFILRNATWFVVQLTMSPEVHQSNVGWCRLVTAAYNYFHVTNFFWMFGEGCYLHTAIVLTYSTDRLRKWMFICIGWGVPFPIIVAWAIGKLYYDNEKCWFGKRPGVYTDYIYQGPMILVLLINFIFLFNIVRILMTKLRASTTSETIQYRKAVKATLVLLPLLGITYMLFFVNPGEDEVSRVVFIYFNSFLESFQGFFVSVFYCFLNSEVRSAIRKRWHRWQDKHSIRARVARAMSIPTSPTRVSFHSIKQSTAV
The data set is described as follows: Measurement of CRF Binding Inhibitory Rate (receptor binding experiment with 125I-CRF). The following applies: human CRF1 receptor expressing CHO cellular membrane fraction, 50 pM 125I-CRF, room temperature 1.5 hr, 0.05 nM to 10 μM of compound; read-out: IC50 values (CRF binding inhibition).

As to `CCC(CC)c1ccc(Cl)c2nc3n(c12)CCCCN3c1c[n+]([O-])c(N(C)C)cc1C` [Example 26, 5-[10-Chloro-7-(1-ethylpropyl)-2,3,4,5-tetrahydro-1H-[1,3]diazepino[1,2-a]benzimidazol-1-yl]-N,N,4-trimethylpyridin-2-amine 1-oxide], the melting point lay within 142 to 143 °C. Moreover, the concentration for half-maximal inhibition (IC50) on human CRF1 receptor is less than 1000 nM.

`CCC(OC(C)=O)c1ccc(Cl)c2nc3n(c12)CCN3c1c(C)cc(Cl)cc1Cl` (stereo not shown) [Example 437, 1-[8-Chloro-1-(2,4-dichloro-6-methylphenyl)-2,3-dihydro-1H-imidazo[1,2-a]benzimidazol-5-yl]propyl acetate] yielded a melting point of 190 to 192 °C. The IC50 at human CRF1 receptor is less than 1000 nM.

In turn, `CCOC(c1ccc(Cl)c2nc3n(c12)CCCN3c1ccc(Cl)cc1Cl)C1CC1` (stereo not shown) [Example 483, 9-Chloro-6-[cyclopropyl(ethoxy)methyl]-1-(2,4-dichlorophenyl)-1,2,3,4-tetrahydropyrimido[1,2-a]benzimidazole] displayed a melting point of 138 to 140 °C. Moreover, the IC50 at human CRF1 receptor was less than 1000 nM.

The compound `CCC(NS(C)(=O)=O)c1ccc(Cl)c2nc3n(c12)CCCN3c1ccc(Cl)cc1Cl` (stereo not shown) [Example 373, N-{1-[9-Chloro-1-(2,4-dichlorophenyl)-1,2,3,4-tetrahydropyrimido[1,2-a]benzimidazol-6-yl]propyl}methanesulfonamide] showed a melting point of 125 to 126 °C. The IC50 on human CRF1 receptor is less than 1000 nM.

In turn, `CCC(CC)c1ccc(Cl)c2nc3n(c12)CCN3c1ccc(Cl)cc1Br` [Example 5, 1-(2-Bromo-4-chlorophenyl)-8-chloro-5-(1-ethylpropyl)-2,3-dihydro-1H-imidazo[1,2-a]benzimidazole] gave a melting point of 169 to 171 °C. Besides, on human CRF1 receptor, the IC50 is less than 1000 nM.

The compound `COC(c1cccc2nc3n(c12)CCCN3c1ccc(Cl)cc1Cl)C1CC1` (stereo not shown) [Example 200, 6-[Cyclopropyl(methoxy)methyl]-1-(2,4-dichlorophenyl)-1,2,3,4-tetrahydropyrimido[1,2-a]benzimidazole] returned a melting point of 118 to 119 °C. Also, the IC50 at human CRF1 receptor was less than 1000 nM.

With `COc1ccc(N2CCCn3c2nc2c(Cl)ccc(C(OC)C(F)(F)F)c23)c(C)n1` (stereo not shown) [Example 280, 9-Chloro-1-(6-methoxy-2-methylpyridin-3-yl)-6-(2,2,2-trifluoro-1-methoxyethyl)-1,2,3,4-tetrahydropyrimido[1,2-a]benzimidazole], the melting point fell in the range of 144 to 146 °C. In addition, on human CRF1 receptor, the IC50 was less than 1000 nM.

`CCN(CC)c1cccc2nc3n(c12)CC(CO)N3c1ccc(Cl)cc1Cl` (stereo not shown) [Example 76, [1-(2,4-Dichlorophenyl)-5-(diethylamino)-2,3-dihydro-1H-imidazo[1,2-a]benzimidazol-2-yl]methanol]: the melting point lay in the range of 187 to 190 °C. For the same compound, the IC50 on human CRF1 receptor is less than 1000 nM.

As to `CCC(OC(C)=O)c1ccc(Cl)c2nc3n(c12)CCCN3c1ncc(Cl)cc1Cl` (stereo not shown) [Example 171, 1-[9-Chloro-1-(3,5-dichloropyridin-2-yl)-1,2,3,4-tetrahydropyrimido[1,2-a]benzimidazol-6-yl]propyl acetate], the melting point was 157 to 159 °C. The IC50 on human CRF1 receptor was less than 1000 nM.

Take `Cc1nc(OC(F)F)ccc1N1CCCn2c1nc1c(Cl)ccc(C(OC(F)F)C(F)(F)F)c12` (stereo not shown) [Example 290, 9-Chloro-1-[6-(difluoromethoxy)-2-methylpyridin-3-yl]-6-[1-(difluoromethoxy)-2,2,2-trifluoroethyl]-1,2,3,4-tetrahydropyrimido[1,2-a]benzimidazole]: the melting point was in the range of 145 to 148 °C. The IC50 on human CRF1 receptor was less than 1000 nM.

The compound `COCC(=O)OC(c1ccc(Cl)c2nc3n(c12)CCCN3c1ccc(Cl)cc1Cl)C1CC1` (stereo not shown) [Example 479] returned a melting point of 159 to 161 °C. Besides, the IC50 at human CRF1 receptor was less than 1000 nM.

The compound `CC/C(=N/OC)c1ccc(Cl)c2nc3n(c12)CCCN3c1ccc(Cl)cc1Cl` [Example 122, (1Z)-1-[9-Chloro-1-(2,4-dichlorophenyl)-1,2,3,4-tetrahydropyrimido[1,2-a]benzimidazol-6-yl]propan-1-one O-methyloxime] returned a melting point of 144 to 145 °C. The IC50 at human CRF1 receptor is less than 1000 nM.

For `CCC(CC)c1ccc(Cl)c2nc3n(c12)CCCCN3c1ccc(N(C)C)cc1C` [Example 51, 4-[10-Chloro-7-(1-ethylpropyl)-2,3,4,5-tetrahydro-1H-[1,3]diazepino[1,2-a]benzimidazol-1-yl]-N,N,3-trimethylaniline], the melting point is 174 to 175 °C. In addition, the IC50 at human CRF1 receptor is less than 1000 nM.

As to `CCC(F)c1ccc(Cl)c2nc3n(c12)CCCN3c1ccc(Cl)cc1Cl` (stereo not shown) [Example 304, 9-Chloro-1-(2,4-dichlorophenyl)-6-(1-fluoropropyl)-1,2,3,4-tetrahydropyrimido[1,2-a]benzimidazole], the melting point lay within 172 to 174 °C. Besides, on human CRF1 receptor, the IC50 is less than 1000 nM.

The compound `CCC(CC)c1cccc2nc3n(c12)CCCCN3c1ccc(OC)cc1OC` [Example 37, 1-(2,4-Dimethoxyphenyl)-7-(1-ethylpropyl)-2,3,4,5-tetrahydro-1H-[1,3]diazepino[1,2-a]benzimidazole] had a melting point of 145 to 148 °C. Moreover, the IC50 at human CRF1 receptor was less than 1000 nM.

Take `CCNC(=O)NC(CC)c1ccc(Cl)c2nc3n(c12)CCCN3c1ccc(Cl)cc1Cl` (stereo not shown) [Example 374, 1-{1-[9-Chloro-1-(2,4-dichlorophenyl)-1,2,3,4-tetrahydropyrimido[1,2-a]benzimidazol-6-yl]propyl}-3-ethylurea]: the melting point was 250 to 252 °C. In addition, the IC50 at human CRF1 receptor is less than 1000 nM.

`CCC(OC(=O)C1CC1)c1ccc(Cl)c2nc3n(c12)CCCN3c1ccc(OC)cc1Cl` (stereo not shown) [Example 482, 1-[9-Chloro-1-(2-chloro-4-methoxyphenyl)-1,2,3,4-tetrahydropyrimido[1,2-a]benzimidazol-6-yl]propyl cyclopropanecarboxylate] showed a melting point of 130 to 132 °C. Besides, the IC50 at human CRF1 receptor is less than 1000 nM.

Take `CCC(CC)c1ccc(Cl)c2nc3n(c12)CCCCN3c1ccc(C(=O)N(C)C)cc1C` [Example 50, 4-[10-Chloro-7-(1-ethylpropyl)-2,3,4,5-tetrahydro-1H-[1,3]diazepino[1,2-a]benzimidazol-1-yl]-N,N,3-trimethylbenzamide]: the melting point fell in the range of 113 to 114 °C. Besides, the IC50 on human CRF1 receptor is less than 1000 nM.

In turn, `CCC(OC(=O)C1CC1)c1ccc(Cl)c2nc3n(c12)CCCN3c1ncc(Cl)cc1Cl` (stereo not shown) [Example 172, 1-[9-Chloro-1-(3,5-dichloropyridin-2-yl)-1,2,3,4-tetrahydropyrimido[1,2-a]benzimidazol-6-yl]propyl cyclopropanecarboxylate] registered a melting point of 154 to 155 °C. Moreover, the IC50 on human CRF1 receptor is less than 1000 nM.

`CCOC(CC)c1ccc(Cl)c2nc3n(c12)CCCN3c1ccc(OC)nc1C` (stereo not shown) [Example 269, 9-Chloro-6-(1-ethoxypropyl)-1-(6-methoxy-2-methylpyridin-3-yl)-1,2,3,4-tetrahydropyrimido[1,2-a]benzimidazole] gave a melting point of 174 to 176 °C. Moreover, on human CRF1 receptor, the IC50 is less than 1000 nM.

In turn, `CCCC(O)(CCC)c1ccc(Cl)c2nc3n(c12)CCCN3c1ccc(Cl)cc1C(F)(F)F` [Example 129, 4-{9-Chloro-1-[4-chloro-2-(trifluoromethyl)phenyl]-1,2,3,4-tetrahydropyrimido[1,2-a]benzimidazol-6-yl}heptan-4-ol] showed a melting point of 200 to 202 °C. Besides, the IC50 at human CRF1 receptor was less than 1000 nM.

For the compound `CCC(OCC(F)(F)F)c1ccc(Cl)c2nc3n(c12)CCCN3c1ccc(Cl)cc1Cl` (stereo not shown) [Example 454, 9-Chloro-1-(2,4-dichlorophenyl)-6-[1-(2,2,2-trifluoroethoxy)propyl]-1,2,3,4-tetrahydropyrimido[1,2-a]benzimidazole], the melting point lay within 146 to 148 °C. Besides, the IC50 on human CRF1 receptor was less than 1000 nM.

`COC(c1ccc(Cl)c2nc3n(c12)CCCN3c1ccc(Cl)cc1Cl)C(F)(F)F` (stereo not shown) [Example 309, 9-Chloro-1-(2,4-dichlorophenyl)-6-(2,2,2-trifluoro-1-methoxyethyl)-1,2,3,4-tetrahydropyrimido[1,2-a]benzimidazole]: the melting point was 161 to 163 °C. Besides, at human CRF1 receptor, the IC50 was less than 1000 nM.

As for `Cc1cc(Cl)cc(Cl)c1N1CCCn2c1nc1c(Cl)ccc(C(O)(C3CC3)C3CC3)c12` [Example 138, [9-Chloro-1-(2,4-dichloro-6-methylphenyl)-1,2,3,4-tetrahydropyrimido[1,2-a]benzimidazol-6-yl](dicyclopropyl)methanol], the melting point lay in the range of 210 to 212 °C. Further, the IC50 at human CRF1 receptor is less than 1000 nM.

For the compound `CCOC(c1ccc(Cl)c2nc3n(c12)CCCN3c1ccc(Cl)cc1Cl)C(F)(F)F` (stereo not shown) [Example 310, 9-Chloro-1-(2,4-dichlorophenyl)-6-(1-ethoxy-2,2,2-trifluoroethyl)-1,2,3,4-tetrahydropyrimido[1,2-a]benzimidazole], the melting point lay within 129 to 131 °C. For the same compound, the IC50 at human CRF1 receptor was less than 1000 nM.

`CCOC(CC)c1ccc(Cl)c2nc3n(c12)CCCN3c1ccc(Cl)cc1Cl` (stereo not shown) [Example 116, 9-Chloro-1-(2,4-dichlorophenyl)-6-(1-ethoxypropyl)-1,2,3,4-tetrahydropyrimido[1,2-a]benzimidazole] yielded a melting point of 108 to 110 °C. Besides, the IC50 on human CRF1 receptor is less than 1000 nM.
